In PubChem BioAssay AID449764 (Southern Research Specialized Biocontainment Screening …, 2010):

Test system: Mycobacterium tuberculosis H37Rv growth inhibition, no glycerol
Assay: Mycobacterium tuberculosis H37Rv growth inhibition, no glycerol, confirmatory dose response (AID 449764);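 further: growth read after 7 days of incubation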
Settings: for IC90: measured here: IC90 growth inhibition

Compound | IC50 | IC90
CC(=O)Nc1sc2c(c1-c1nc3ccccc3s1)CCN(C(C)C)C2 | 8.64 µM | 11.2 µM
COCCN(C(=O)C1CC(=O)N(Cc2ccccc2)C1)c1nc(-c2ccc([N+](=O)[O-])cc2)cs1 (configuration not stated) | 28.3 µM | > 100 µM
CC(C)(C)c1ccc(-c2nc(-c3ccncc3)no2)cc1 | 35.2 µM | 47.6 µM
COC(=O)c1ccc(CSc2nc(C(F)(F)F)c3c(c2C#N)CCC3)o1 |  | > 100 µM
O=C1N=C(N2CCC(Cc3ccccc3)CC2)S/C1=C/c1cn[nH]c1-c1ccccc1 | 78.9 µM | > 100 µM
c1ccc(C2[C@H]3CN(CC4CCCCC4)[C@H](c4ccccc4)C34CC2(c2cccnc2)C4)cc1 (some centres not stated) | 34.2 µM | 45.1 µM
CCCNC1=C(N(C(C)=O)c2cccc(F)c2)C(=O)c2ccccc2C1=O | 12.2 µM | 15.6 µM
CC(C)Oc1ccc(-c2nc(NCC3CCCO3)c3ccccc3n2)cc1 (configuration not stated) | 62.3 µM | 98.3 µM
COc1ccc(Cc2nc3ccc(C(=O)NCCCSC)cc3o2)cc1OC | 43.1 µM | 65.2 µM
CCC(C)NC(=O)c1cn(CC)c2cc(N3CCN(C(=O)c4ccco4)CC3)c(F)cc2c1=O (configuration not stated) | 23.5 µM | 29.7 µM
Cc1ccc(NC(=O)CSc2nc3ccccc3c(=O)n2CCCN2CCCCC2)cc1Cl | 36.6 µM | 79.2 µM
COc1cc(NC(C)CCCN)c2ncccc2c1 (configuration not stated) | 9.02 µM | 14.3 µM
O=C1Nc2cc(C(=O)NCCCN3CCOCC3)ccc2S/C1=C/c1cccc(Cl)c1 | 32.9 µM | 44.9 µM
CSc1ccc(C(=O)C2CCCN(C(=O)c3ccc4c(c3)no[n+]4[O-])C2)cc1 (configuration not stated) | 1.65 µM | 2.53 µM
CC1=CC(=O)c2c(O)ccc(O)c2C1=O | 5.64 µM | 7.87 µM
Cc1nn(-c2ccccc2)c2c1C(c1ccc([N+](=O)[O-])cc1)N1C(=N2)C(=O)Nc2ccccc21 (configuration not stated) | 55.3 µM | > 100 µM
CCCOC(=O)CSc1nc(N2CCOCC2)c2c(c1C#N)CC(C)(C)OC2 | 23.9 µM | 42.5 µM
CC1=C(C)C(=O)C(CCCCC#CCCCC#CCO)=C(C)C1=O | 24 µM | 26.2 µM
CCCn1nnc(NC(=O)COc2ccc(CC)cc2)n1 | 48.4 µM | > 100 µM
O=C(N/N=C(\c1ccccc1)c1ccccn1)c1ccccc1Cl | 12.1 µM | 15.5 µM
COc1ccc(-n2nnnc2S(=O)(=O)CC(=O)N2CCCCC2)cc1 | 12.5 µM | 20.9 µM
COC(=O)CCc1nc2c(C#N)c(-c3ccc(Cl)cc3)ccn2n1 | 2.71 µM | 5.22 µM

Compound | IC50 | IC90
COC(=O)c1ccc(NC(=S)NC(=O)C2CCC2)cc1 | 43.6 µM | > 100 µM
CCCCOC(=O)CCN1C(=O)/C(=C2\SC(=S)N(CCC(=O)OCCCC)C2=O)SC1=S | 5.44 µM | 10.6 µM
CC(C)CC[n+]1ccccc1/C=C/c1ccc(N(C)C)cc1 | 10.2 µM | 15.4 µM
CCCn1nc(C(=O)NNC(=O)c2ccc(C)c(C)c2)c2ccccc2c1=O | 24.6 µM | 27.9 µM
CCOC(=O)N1CCC(n2c(SCC(=O)OCc3ccccc3)nc3ccsc3c2=O)CC1 | 61.6 µM | > 100 µM
CC1(c2nnc(-c3ccncc3)o2)CC(c2ccccc2)=NO1 (configuration not stated) | 68.5 µM | > 100 µM
CCOC(=O)COn1c2c(c3c4no[n+]([O-])c4ccc31)CCCC2 | 5.68 µM | 6.48 µM
O=C(CSc1nn(-c2ccc(F)cc2)c(=S)s1)NCC1CCCO1 (configuration not stated) | 20.7 µM | > 100 µM
CNc1ncnc2c1ncn2[C@@H]1O[C@H](CO)[C@@H](O)[C@H]1O | 3.97 µM | 9.18 µM
CCOC(=O)COc1ccc(/C=C2\NC(=S)N(CC)C2=O)cc1 | 3.1 µM | 3.44 µM
COc1ccc(C2=CC(c3c(C)nn(-c4ccccc4)c3Cl)n3nnnc3N2)cc1OC (configuration not stated) | 94.1 µM | > 100 µM
CC(C(Sc1ccccc1N)c1ccccc1)[N+](=O)[O-] (configuration not stated) |  | > 100 µM
CC(C)n1cnc2c(NCc3ccccc3)cc(Cc3ccc(F)cc3)cc21 | 34.4 µM | 49.3 µM
CCN1/C(=C/C=C/c2oc3ccc(-c4ccccc4)cc3[n+]2CC)Oc2ccc(-c3ccccc3)cc21 | 5.81 µM | 6.37 µM
CCOC(=O)CNC(=S)n1cnc(N)n1 | 45.8 µM | > 100 µM
O=C(C[n+]1ccc(C(=O)N/N=C/c2ccc(O)cc2)cc1)c1ccccc1 | 9.55 µM | > 100 µM
O=c1cc(N=Nc2ccc(Cl)cc2)[nH]c(=O)[nH]1 | 78.9 µM | > 100 µM
CC1CCC(NC(=O)c2cc3c(s2)CCCC3)CC1 (configuration not stated) | 67.7 µM | > 100 µM
Cc1ccc2nc(/N=C(\N)NC(=O)NC3CCCCC3)nc(C)c2c1 | 6.71 µM | 16.6 µM
CC(C(c1ccc2c(c1)OCO2)c1c(N)n(C)c(=O)n(C)c1=O)[N+](=O)[O-] (configuration not stated) | 8.17 µM | 11.8 µM
O=C1C(Cl)=C(N2CCOCC2)C(=O)N1c1cccc(Cl)c1 | 6.48 µM | 12.6 µM
Cc1ccccc1N1CCN(C(=O)c2ccc(Oc3ccc(C(F)(F)F)cn3)cc2)CC1 | 30.2 µM | 54.6 µM

Compound | IC50 | IC90
C/C(=N\NC(=O)c1nnn(-c2nonc2N)c1CN(C)c1ccccc1)c1ccccn1 | 11.9 µM | 13.6 µM
Cc1ccc(NC(=O)c2sccc2-n2cccc2)c(C)c1 |  | > 100 µM
COc1cccc2sc3ccc(C#CC4(N)CCCCC4)cc3c(=O)c12 | 73.8 µM | > 100 µM
Cc1ccc(-c2noc(=O)n2CC(=O)c2ccc(Cl)cc2)cc1 |  | > 50 µM
CCCc1ccc2oc(C(=O)N(C)Cc3nccs3)c(C)c2c1 | 45 µM | 68.3 µM
CN(CC(=O)Nc1ccccc1Br)C(=O)c1cccnc1Nc1cccc(C(F)(F)F)c1 | 35 µM | 48.7 µM
COc1ccc2c(c1)[C@@H]1[C@H](CO2)[C@H](c2ccccc2)[C@]2(C)C(=O)Nc3ccc(C)cc3C(=O)N12 | 71.1 µM | > 100 µM
CCOC(=O)CSc1nc(C)c(C(=O)OCC)s1 | 9.22 µM | 16.2 µM
COc1ccc(/C=C/CN2CCC(CO)(Cc3ccccc3Cl)CC2)cc1 | 24.3 µM | 27.5 µM
CC1CN(c2ccc([N+](=O)[O-])c(NCCOc3ccc(Cl)cc3)c2)CC(C)N1 (configuration not stated) | 15.5 µM | 31.2 µM
C=CCNc1oc(-c2ccc(-c3ccccc3)cc2)nc1C#N | 16.1 µM | 19.6 µM
COc1ccccc1-c1cc(C(=O)NC2CCN(C)CC2)c2ccc(Cl)c(C)c2n1 | 83.5 µM | > 100 µM
O=C(/C=C/c1ccc(O)c([N+](=O)[O-])c1)c1ccc2ccccc2c1 | 24 µM | > 100 µM
COc1ccc(C(C)=O)cc1COC(=O)c1ccc2ccccc2n1 | 60.3 µM | > 100 µM
CCOc1ccc(OCCSc2ccc(S(=O)(=O)N3CCN(C)CC3)cn2)cc1 | 25.5 µM | 28.8 µM
c1ccc(Nc2nc(N3CCCCC3)nc(N3CCNCC3)n2)cc1 | 44.4 µM | 69.4 µM
CC(C)Cc1nc2oc3c(N4CCN(CCO)CC4)ncnc3c2c2c1CCCC2 | 18.3 µM | 24.9 µM
CC(C)=N/N=C1/NC(=O)C(Cc2ccccc2)S1 (configuration not stated) | 76.5 µM | 97.2 µM
C=CCc1cc(C)ccc1OCCCC(C(=O)OCC)C(=O)OCC | 28.1 µM | 52.1 µM
CCCOC(=O)c1ccc(-c2ccc(C=O)o2)cc1 | 21.1 µM | > 100 µM
CSc1ncc(C(=O)Nc2ccc(Br)cn2)c(C)n1 | 1.54 µM | 2.93 µM
CCOc1cccc2cc(C(=O)Nc3nccs3)c(=O)oc12 | 2.4 µM | 15.3 µM

Compound | IC50 | IC90
COCCCN=C1NN=C(c2cc(C)n(Cc3ccco3)c2C)CS1 | 70.7 µM | 92.2 µM
CCOc1ccc(NC(=S)Nc2ccc(C)c([N+](=O)[O-])c2)cc1 | 27.7 µM | > 100 µM
O=C(Nc1ccc(N2CCN(C(=O)c3ccco3)CC2)cc1)C(c1ccccc1)c1ccccc1 | 24.1 µM | 27.2 µM
CCOC(=O)c1nnc(-c2ccccc2)nc1NCc1ccccc1 | 19.2 µM | > 100 µM
O=C(CCl)c1ccc2c(c1)CCN2C(=O)C1CCCCC1 | 41.5 µM | > 100 µM
Cc1cccc(OCc2n(CC(=O)OC3CC(C)CCC3C(C)C)c3ccccc3[n+]2C)c1 (configuration not stated) | 8.63 µM | 10.4 µM
CCC1C(c2ccccc2)N(C)C(c2ccccc2)CC1(O)c1ccccc1 (configuration not stated) | 23.9 µM | 27.6 µM
Cc1ccc(-c2csc3nc4c5ccccc5c(NCCCN5CCOCC5)nn4c(=O)c23)cc1 | 29 µM | 39.8 µM
Cc1cc(N2CCC(C)CC2)nc(-n2nc(C)cc2C)n1 | 0.97 µM | 2.97 µM
O=C(C/C=N\OCc1ccc([N+](=O)[O-])cc1)Nc1ccc(F)cc1F | 82.9 µM | > 100 µM
Cc1cc(C(=O)COC(=O)C2=COCCO2)c(C)n1-c1cccc(F)c1 | 9.64 µM | > 100 µM
Cc1ccc(OC(=O)c2oc3ccc(F)cc3c2C)c(C)c1 | 12 µM | 13.9 µM
CON(C)c1nc(C2CCCCC2)c2cc(C)ccc2n1 | 57.4 µM | 68.2 µM
Cc1noc(C)c1COc1ccc(C(=O)OCC(=O)NC23CC4CC(CC(C4)C2)C3)cc1 | 23.9 µM | 35.5 µM
Cc1ccc2[nH]c(C(=O)NN=C3CCCCC3)c(-c3ccccc3)c2c1 | 33.6 µM | 53.3 µM
COC(=O)c1cc(/C=C/c2ccccc2)on1 | 29.3 µM | > 100 µM
Cc1ccc(-n2nc(C)c3c(C)c(CCC(=O)Nc4ccc(CN5CCCC5)cc4)c(C)nc32)cc1 | 15.7 µM | 22.1 µM
CCCCOC(=O)NS(=O)(=O)c1sc(CC(C)C)cc1-c1ccc(Cn2c(CC)nc3c(C)cc(C)nc32)cc1 | 30.7 µM | 47.2 µM
COc1ccc(-c2cn3cc([N+](=O)[O-])ccc3n2)cc1OC | 46.9 µM | > 50 µM
CC1(C)Cc2c(C#N)c(N3CCN(C(=O)c4ccccc4)CC3)nc(Cc3ccccc3)c2CO1 | 31.4 µM | 46.9 µM
COc1ccc(-c2nnc(NC(=O)c3ccc([N+](=O)[O-])o3)o2)c(OC)c1 | 6.13 µM | 14 µM
CN=c1scc(-c2ccccc2Br)n1/N=C/c1ccc[nH]1 | 88.3 µM | 92.2 µM
